Experimental data as given in ChEMBL document CHEMBL1212704, “Structural and biochemical evidence for a boat-like transition state in beta-mannosidases” (Nat Chem Biol, 2008).

How the values were obtained:
[1] = Inhibition of wild type Bacteroides thetaiotaomicron beta-mannosidase 2A expressed in Escherichia coli BL21 (DE3) at 37 degC and Ph 5.6 by 2,4-dinitrophenolate release assay
Beta-mannosidase [2] = biological target: Beta-mannosidase (Bacteroides thetaiotaomicron (strain ATCC 29148 / DSM 2079 / NCTC10582 / E50 / VPI-5482), UniProt Q8AAK6, W395A)
Beta-mannosidase [3] = biological target: Beta-mannosidase (Bacteroides thetaiotaomicron (strain ATCC 29148 / DSM 2079 / NCTC10582 / E50 / VPI-5482), UniProt Q8AAK6, N461A)
Beta-mannosidase [4] = biological target: Beta-mannosidase (Bacteroides thetaiotaomicron (strain ATCC 29148 / DSM 2079 / NCTC10582 / E50 / VPI-5482), UniProt Q8AAK6, Q646A)
Beta-mannosidase [5] = biological target: Beta-mannosidase (Bacteroides thetaiotaomicron (strain ATCC 29148 / DSM 2079 / NCTC10582 / E50 / VPI-5482), UniProt Q8AAK6, Y537A)
Beta-mannosidase [6] = biological target: Beta-mannosidase (Bacteroides thetaiotaomicron (strain ATCC 29148 / DSM 2079 / NCTC10582 / E50 / VPI-5482), UniProt Q8AAK6, W198G)
Beta-mannosidase [7] = biological target: Beta-mannosidase (Bacteroides thetaiotaomicron (strain ATCC 29148 / DSM 2079 / NCTC10582 / E50 / VPI-5482), UniProt Q8AAK6, W645A)
[8] = Inhibition of Thermotoga maritima Beta-glucosidase GH1

Beta-mannosidase (Bacteroides thetaiotaomicron (strain ATCC 29148 / DSM 2079 / NCTC10582 / E50 / VPI-5482), UniProt Q8AAK6, Y537A), sequence (Q8AAK6 26-864 Y537A limits assumed): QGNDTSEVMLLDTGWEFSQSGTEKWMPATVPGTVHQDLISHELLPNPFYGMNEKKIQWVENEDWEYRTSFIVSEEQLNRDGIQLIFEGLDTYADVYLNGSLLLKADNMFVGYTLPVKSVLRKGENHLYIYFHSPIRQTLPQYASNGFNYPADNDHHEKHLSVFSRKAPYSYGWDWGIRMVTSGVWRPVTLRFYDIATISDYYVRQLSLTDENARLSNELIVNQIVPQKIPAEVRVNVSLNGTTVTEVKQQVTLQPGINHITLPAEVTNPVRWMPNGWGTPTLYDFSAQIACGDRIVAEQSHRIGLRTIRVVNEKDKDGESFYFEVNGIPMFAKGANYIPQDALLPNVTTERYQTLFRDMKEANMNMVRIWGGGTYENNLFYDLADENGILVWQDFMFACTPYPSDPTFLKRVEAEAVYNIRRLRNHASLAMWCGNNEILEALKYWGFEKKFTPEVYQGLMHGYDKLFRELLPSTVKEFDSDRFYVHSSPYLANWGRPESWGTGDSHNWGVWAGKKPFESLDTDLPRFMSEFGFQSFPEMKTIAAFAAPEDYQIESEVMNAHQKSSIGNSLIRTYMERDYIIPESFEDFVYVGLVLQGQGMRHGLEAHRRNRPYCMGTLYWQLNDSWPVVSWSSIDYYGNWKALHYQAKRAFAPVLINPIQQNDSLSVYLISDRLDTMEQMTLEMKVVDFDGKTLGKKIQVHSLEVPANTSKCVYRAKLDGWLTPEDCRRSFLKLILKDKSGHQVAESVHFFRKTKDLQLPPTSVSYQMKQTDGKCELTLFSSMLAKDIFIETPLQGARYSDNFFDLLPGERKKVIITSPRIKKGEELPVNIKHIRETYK
Beta-mannosidase (Bacteroides thetaiotaomicron (strain ATCC 29148 / DSM 2079 / NCTC10582 / E50 / VPI-5482), UniProt Q8AAK6, W645A), sequence (Q8AAK6 26-864 W645A limits assumed): as the sequence (Q8AAK6 26-864 Y537A limits assumed) above, with A512Y, W620A counted along it
Beta-mannosidase (Bacteroides thetaiotaomicron (strain ATCC 29148 / DSM 2079 / NCTC10582 / E50 / VPI-5482), UniProt Q8AAK6, Q646A), sequence (Q8AAK6 26-864 Q646A limits assumed): as the sequence (Q8AAK6 26-864 Y537A limits assumed) above, with A512Y, Q621A counted along it
Beta-mannosidase (Bacteroides thetaiotaomicron (strain ATCC 29148 / DSM 2079 / NCTC10582 / E50 / VPI-5482), UniProt Q8AAK6, N461A), sequence (Q8AAK6 26-864 N461A limits assumed): as the sequence (Q8AAK6 26-864 Y537A limits assumed) above, with N436A, A512Y counted along it
Beta-mannosidase (Bacteroides thetaiotaomicron (strain ATCC 29148 / DSM 2079 / NCTC10582 / E50 / VPI-5482), UniProt Q8AAK6, W395A), sequence (Q8AAK6 26-864 W395A limits assumed): as the sequence (Q8AAK6 26-864 Y537A limits assumed) above, with W370A, A512Y counted along it
Beta-mannosidase (Bacteroides thetaiotaomicron (strain ATCC 29148 / DSM 2079 / NCTC10582 / E50 / VPI-5482), UniProt Q8AAK6, W198G), sequence (Q8AAK6 26-864 W198G limits assumed): as the sequence (Q8AAK6 26-864 Y537A limits assumed) above, with W173G, A512Y counted along it

| SMILES | Ki [1] [µM] | Ki (Beta-mannosidase [2]) [µM] | Ki (Beta-mannosidase [3]) [µM] | Ki (Beta-mannosidase [4]) [µM] | Ki (Beta-mannosidase [5]) [µM] | Ki (Beta-mannosidase [6]) [µM] | Ki (Beta-mannosidase [7]) [µM] | also measured |
| --- | --- | --- | --- | --- | --- | --- | --- | --- |
| OC[C@H]1C[C@@H]2NC[C@]1(O)[C@H](O)[C@@H]2O | 500 | – | – | – | – | – | – | – |
| OC[C@H]1CNC(O)[C@@H](O)[C@@H]1O (some centres undefined) | – | 40.8 | 641 | 14 | 19.2 | 788 | 1.11 | – |
| OC[C@H]1C[C@H]2[C@@H](O)[C@@H](O)[C@@]1(O)CN2Cc1ccccc1 | – | 2850 | 3750 | 121 | 233 | 5690 | 14400 | – |
| OC[C@@H]1[C@@H](O)[C@H](O)[C@H](O)c2nc(COc3ccccc3)cn21 | 0.401 | 284 | 19.1 | 0.494 | 2.65 | 356 | 245 | – |
| OC[C@H]1NC[C@H](O)[C@@H](O)[C@@H]1O [DUVOGLUSTAT] | 14000 | – | – | – | – | – | – | – |
| O[C@@H]1[C@@H](O)[C@H](O)[C@@]2(O)CC[C@H]1N2 | 11000 | – | – | – | – | – | – | – |
| O[C@H]1[C@H](O)[C@@H](O)CN2CC[C@H](O)[C@H]12 [CASTANOSPERMINE] | 23000 | – | – | – | – | – | – | – |
| CCC/N=C1\N[C@H](CO)[C@@H](O)[C@H](O)[C@@H]1O | 1.9 | 1180 | 34.8 | 71.2 | 84 | 10500 | 5700 | – |
| NCCCC/N=C1\N[C@H](CO)[C@@H](O)[C@H](O)[C@H]1O | 22 | – | – | – | – | – | – | – |
| OC[C@H]1CNC[C@@H](O)[C@@H]1O [AFEGOSTAT] | 9000 | – | – | – | – | – | – | – |
| OC[C@@H]1[C@@H](O)[C@H](O)[C@H](O)c2nc(CNc3ccccc3)cn21 | – | 46.6 | 7.28 | 0.311 | 1.54 | 58.5 | 68.1 | – |
| OC[C@@H]1[C@@H](O)[C@H](O)[C@H](O)c2nc(CCc3ccccc3)cn21 | 0.057 | 47 | 3.19 | 0.245 | 0.71 | 14.2 | 324 | – |
| OC[C@@H]1[C@@H](O)[C@H](O)[C@H](O)c2nc(C#Cc3ccccc3)cn21 | 2.4 | – | – | – | – | – | – | – |

More lines, main results first:

| Ki [1] [µM] | SMILES | Ki (Beta-mannosidase [2]) [µM] | Ki (Beta-mannosidase [3]) [µM] | Ki (Beta-mannosidase [4]) [µM] | Ki (Beta-mannosidase [5]) [µM] | Ki (Beta-mannosidase [6]) [µM] | Ki (Beta-mannosidase [7]) [µM] | also measured |
| --- | --- | --- | --- | --- | --- | --- | --- | --- |
| 2.2 | OCCC/N=C1\N[C@H](CO)[C@@H](O)[C@H](O)[C@@H]1O | – | – | – | – | – | – | – |
| 2000 | OC[C@H]1N/C(=N/O)[C@H](O)[C@@H](O)[C@@H]1O | – | – | – | – | – | – | – |
| 20000 | OC[C@H]1ONC[C@@H](O)[C@@H]1O [TETRAHYDROOXAZINE] | – | – | – | – | – | – | – |
| > 400000 | CC(C)O[C@@H]1O[C@]2(CO)CC[C@]1(O)[C@@H](O)[C@@H]2O | – | – | – | – | – | – | – |
| 2.1 | NCCC/N=C1\N[C@H](CO)[C@@H](O)[C@H](O)[C@@H]1O | – | – | – | – | – | – | – |
| 6000 | CCCCN1C[C@H](O)[C@@H](O)[C@H](O)[C@H]1CO | – | – | – | – | – | – | – |
| 1000 | OC[C@@H]1[C@@H](O)[C@H](O)[C@H](O)c2nnnn21 | – | – | – | – | – | – | Ki [8]: 0.17 µM |
